In experiment [1] the test system is Mus musculus. Description: Prolongation of survival in po dosed CD1 mouse infected with Coccidioides immitis Silveira administered after 3 days of infection after 12 days relative to control. It counts as functional, organism-based.
Experiment [2] concerns Mus musculus. Description: Prolongation of survival in CD1 mouse infected with Coccidioides immitis Silveira administered after 3 days of infection at 25 mg/kg, po bid after 12 days relative to control. It counts as functional, organism-based. Further details: dose 25 mg/kg.
The test system of experiment [3] is Coccidioides immitis. Description: Reduction of fungal burden in Coccidioides immitis Silveira infected po dosed CD1 mouse brain, spinal cord, lung, kidney administered twice daily after 3 days of infection measured after 5 days relative to control. It counts as functional, organism-based.
The test system of experiment [4] is Coccidioides immitis. Description: Effect on Coccidioides immitis Silveira infection in CD1 mouse brain, spinal cord and lungs administered after 3 days of infection at 50 mg/kg, po bid after 10 days. It counts as functional, organism-based. Further details: dose 50 mg/kg.
For experiment [5], the system named is Coccidioides immitis. Description: Effect on fungal burdens in Coccidioides immitis Silveira infected CD1 mouse spinal cord administered after 3 days of infection at 50 mg/kg, po bid after 12 days. It counts as functional.
Experiment [6] concerns Coccidioides immitis. Description: Effect on fungal burdens in Coccidioides immitis Silveira infected CD1 mouse lung administered after 3 days of infection at 50 mg/kg, po bid after 12 days. The class given is functional, organism-based. Further details: dose 50 mg/kg.
The test system of experiment [7] is Mus musculus. Description: Prolongation of survival in CD1 mouse infected with Coccidioides immitis Silveira administered after 3 days of infection at 50 mg/kg, po bid after 12 days relative to control. Also on record: dose 50 mg/kg. The class given is functional, organism-based.
Experiment [8] deals with Mus musculus. Description: Prolongation of survival in CD1 mouse infected with Coccidioides immitis Silveira administered after 3 days of infection at 10 mg/kg, po bid after 12 days relative to control. The class given is functional, organism-based. Further details: dose 10 mg/kg.
In experiment [9] the test system is Coccidioides immitis. Description: Antifungal activity against Coccidioides immitis by broth macrodilution method. The class given is functional. Conditions: for MIC50 / MIC90: Coccidioides immitis.
The subject of experiment [10] is Coccidioides immitis. Description: Reduction of fungal burden in Coccidioides immitis Silveira infected CD1 mouse lung and kidney administered after 3 days of infection at 10 mg/kg, po bid after 5 days relative to control. It counts as functional, organism-based. Further details: dose 10 mg/kg.
Experiment [11] relates to Coccidioides immitis. Description: Effect on fungal burdens in Coccidioides immitis Silveira infected CD1 mouse brain administered after 3 days of infection at 50 mg/kg, po bid after 12 days. The class given is functional.

The results in this text go back to ChEMBL document CHEMBL1142072, “Comparison of itraconazole and fluconazole treatments in a murine model of coccidioidal meningitis” (2007).

Each structure is given as a SMILES string. Converted amounts (≈) assume the structure as drawn. The source made the active and inactive calls. The rule behind the calls is not given here. Bounds are passed on as bounds.

As a reminder, the MIC50 is the lowest concentration that inhibits either 50% of growth or 50% of the strains tested, depending on the study. Read a high MIC50 as lower susceptibility. The term MIC90 denotes the lowest concentration that inhibits either 90% of growth or 90% of the strains tested, depending on the study. Lower therefore signals higher susceptibility. As for `OC(Cn1cncn1)(Cn1cncn1)c1ccc(F)cc1F` [FLUCONAZOLE], the Activity result in experiment [1] and in [3] was “Dose-dependent effect” in each case. Moreover, the outcome in experiment [2], in experiment [4], in experiment [5], in experiment [6], in [7] and in experiment [8] was Active. In experiment [11], the outcome was Active. Besides, the MFC50 in experiment [9] was 25 µg/mL (≈ 81.6 µM). Also, in [9], the MFC90 was above 100 µg/mL. For the same compound, in experiment [9], the MIC50 stood at 25 µg/mL (≈ 81.6 µM). In experiment [9], this compound had an MIC90 above 100 µg/mL. The result in experiment [10] was inactive.
For the compound `CCC(C)n1ncn(-c2ccc(N3CCN(c4ccc(OCC5COC(Cn6cncn6)(c6ccc(Cl)cc6Cl)O5)cc4)CC3)cc2)c1=O` (configuration not stated) [ITRACONAZOLE], the Activity entry in experiment [1] and in experiment [3] was “Dose-dependent effect” in each case. The outcome in [2], in experiment [4], in experiment [6], in experiment [7] and in experiment [8] was Active. The log10CFU/g in [5] was 1.73; in [11] it was 0.75. The MFC50 in [9] amounted to 1.56 µg/mL (≈ 2.21 µM). This compound also showed an MFC90 in experiment [9] of 6.25 µg/mL (≈ 8.86 µM). This compound also had an MIC50 in experiment [9] of 0.78 µg/mL (≈ 1.11 µM). In addition, the MIC90 in experiment [9] was determined as 1.56 µg/mL (≈ 2.21 µM).
